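Where inhibition never reached the appropriate level, the endpoint shown equals the highest concentration tested. Otherwise, values were interpolated linearly from a five-concentration, 48-hour dose response in 96-well plates. Abbreviation: GI50, concentration required for 50% inhibition of growth. TGI denotes the concentration required for complete inhibition of growth.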
Columns and labels:
Assay in all cases: NCI tumour cell line growth inhibition, 48 h
MOLT-4 leukemia = system: MOLT-4 leukemia
PC-3 prostate = system: PC-3 prostate
NCI-H522 lung = system: NCI-H522 lung
HCT-15 colon = system: HCT-15 colon
EKVX NSCLC = system: EKVX NSCLC
MALME-3M melanoma = system: MALME-3M melanoma
SK-MEL-5 melanoma = system: SK-MEL-5 melanoma
HOP-92 NSCLC = system: HOP-92 NSCLC
SF-295 CNS = system: SF-295 CNS
SF-268 CNS = system: SF-268 CNS

SMILES | GI50 (MOLT-4 leukemia) [µM] | TGI (MOLT-4 leukemia) [µM] | GI50 (PC-3 prostate) [µM] | TGI (PC-3 prostate) [µM] | GI50 (NCI-H522 lung) [µM] | TGI (NCI-H522 lung) [µM] | GI50 (HCT-15 colon) [µM] | TGI (HCT-15 colon) [µM] | GI50 (EKVX NSCLC) [µM] | TGI (EKVX NSCLC) [µM] | GI50 (MALME-3M melanoma) [µM] | TGI (MALME-3M melanoma) [µM] | GI50 (SK-MEL-5 melanoma) [µM] | TGI (SK-MEL-5 melanoma) [µM] | GI50 (HOP-92 NSCLC) [µM] | TGI (HOP-92 NSCLC) [µM] | GI50 (SF-295 CNS) [µM] | TGI (SF-295 CNS) [µM] | GI50 (SF-268 CNS) [µM] | TGI (SF-268 CNS) [µM]
COc1ccc2nc3ccccc3c(NCc3ccc(F)cc3)c2c1 | 1.66 | 10.4 | 1.96 | 8.01 | 2.06 | 9.38 | 1.54 | 5.23 | 2.16 | 7.95 | 1.46 | 5.38 | 2 | 7.2 | 1.39 | 6.6 | 1.58 | 6.48 | 2.2 | 8.71
NC(N)=N/N=C/c1c(Cl)cccc1Cl | 28.2 | 74.5 | 31 | > 100 | 25.8 | 77.2 | 26.1 | > 100 | 15.9 | 47.5 | 16.2 | 33.5 | 14.6 | 27.7 | 6.66 | 32.7 | 12.4 | 30.2 | 23.9 | 89.4
CCn1c(O)c(/C=N/NC(=O)C(C)c2ccc(CC(C)C)cc2)sc1=S (centres undefined) | 0.479 | > 48.2 | 0.415 | > 41.4 | 0.277 | 5.58 | 0.379 | > 35.4 | 0.596 | > 46 | 0.331 | > 43 | 0.489 | 3.26 | 0.806 | 9.65 | 0.337 | > 34.7 | 1.63 | > 43.4
CCOc1ccc(/C=C2\N=C(c3ccc([N+](=O)[O-])cc3)OC2=O)cc1 |  | > 100 |  | > 100 |  | > 100 |  | > 100 |  | > 100 |  | > 100 |  | > 100 |  | > 100 |  | > 100 |  | > 100
NC(N)=NCCCC(=O)O |  | > 100 |  | > 100 |  | > 100 |  | > 100 |  | > 100 |  | > 100 |  | > 100 |  | > 100 |  | > 100 |  | > 100
Cc1nc(N)sc1N=Nc1ccccc1Br |  | > 100 |  | 63 |  | 30.3 |  | 69.8 |  | 76.3 |  | 61 |  | 48.6 |  | 46.1 |  | 97.7 |  | 40.4
COC(=O)c1c2c(c(C)[n+]([O-])c1C)C(=O)C=C(NCc1ccc(F)cc1)C2=O | 0.858 | 3.09 | 0.317 | 3.68 | 0.792 | 3.2 | 0.341 | 1.86 | 0.963 | 2.23 | 0.153 | 0.389 | 0.193 | 0.405 | 1.72 | 3.83 | 0.592 | 1.94 | 1.38 | 4.66
O=C(/C=C/c1ccc[nH]1)c1ccc(-n2ccc(C(F)(F)F)n2)cc1 | 13.8 | > 100 | 0.371 | > 100 | 4.08 | > 100 | > 100 | > 100 | > 100 | > 100 | > 100 | > 100 | > 100 | > 100 | > 100 | > 100 | > 25.8 | > 100 | 3.8 | > 100
CNCCOC(=O)/C=C1\CC[C@H]2[C@@H]([C@@H](O)C(=O)[C@@H]3[C@]2(C)CC[C@H](O)[C@]3(C)C(=O)OC)[C@H]1C | 0.212 | 0.543 | 0.369 | 2.34 | 0.249 | 0.813 | 0.608 | 2.55 | 0.229 | 0.539 | 0.324 | 1.42 | 0.252 | 0.734 | 0.527 | 3.52 | 0.301 | 0.951 | 0.233 | 0.59
O=c1c(F)cn(Cc2ccc(C34CC5CC(CC(C5)C3)C4)c(O)c2)c(=O)n1Cc1ccc(C23CC4CC(CC(C4)C2)C3)c(O)c1 | 5.85 | 44.4 | 10.7 | 24.2 | 15.9 | 32.9 | 13.6 | 26.5 | 15.8 | 34.8 | 14.8 | 29.2 | 13.9 | 27 | 12.4 | 28.7 | 16.9 | 32.5 | 12.8 | 32.6
N#Cc1nn(-c2cc(=O)[nH]c3ccc(Cl)cc23)c(N)c1C#N | > 100 | > 100 | > 100 | > 100 | > 100 | > 100 | > 100 | > 100 | 11.5 | > 100 | > 100 | > 100 | > 100 | > 100 | 10.2 | > 100 | > 100 | > 100 | > 100 | > 100
CCOC(=O)Nc1cc2c(c(N)n1)N=C(c1ccccc1)CO2 | 0.105 | > 40.7 | 0.182 | 6.44 | 0.268 | 13 | 0.0894 | > 100 | 0.409 | > 46 | 5.11 | 36.2 | 0.174 | 5.9 | 7.13 | 29.1 | 0.224 | 14.2 | 0.325 | 15.8
C[C@@H]1C[C@@H]([C@@H](CC2CC(=O)NC(=O)C2)OC(=O)CC(=O)c2ccccc2)C(=O)[C@@H](C)C1 | 0.494 | > 100 | 0.444 | > 100 | 0.191 | 4.32 | 0.809 | > 100 | 0.495 |  | 0.496 | 13.6 | 0.661 | > 100 | 0.324 | > 24.9 | 0.224 | 12.3 | 0.908 | > 32
